The values below come from patent US12522582B2 (Gilead Sciences, Inc., priority 2022, dated 2026).

The nature of data set [1]: MT-4 CC50 Assay (CellTiter Glo). The conditions noted are these: human, MT-4 cells, luminescence, read-out: CC50-MT4. The data set is classed as cell-based. The procedure: Compounds were tested in 384-well plates: 18 compounds in duplex. Compounds were diluted in 7 points, 3-fold with DMSO by Bravo. Assay plate, which contains 20 uL medium with compounds, was seeded 2000 MT-4 cells in 20 uL/well by Multi-drop to start the assay. The plate was incubated at 37° C. for 5 days. On 6th day, the CellTiter Glo 40 uL was added in each well. Luminescence was read by Victor II.

For another data set, the system named is HSV-2 virus (MS strain). In words: HSV-2 Cellomics Assay (immunofluorescence of HSV protein gD in infected ARPE-19 cells). The conditions noted are these: Human alphaherpesvirus 2, ARPE-19, 16 h.
Where [2] appears, read: read-out: EC50-HSV2-10% Human Serum.

Structures are written as SMILES. pEC50: −log10 of the molar value. Where two headings read alike, the source gives them in different places.

With `C[C@@H]1[C@@H](C)c2cc(F)c(S(N)(=O)=O)cc2N1C(=O)[C@@H]1Cc2ccc(-c3ccccn3)cc2C1` [Example 46, (2R,3S)-5-fluoro-2,3-dimethyl-1-((R)-5-(pyridin-2-yl)-2,3-dihydro-1H-indene-2-carbonyl)indoline-6-sulfonamide], the CC50 at 5 days in data set [1] is ≥ 10000 nM. Further, the pEC50 was 6.84 with HSV-2 virus (MS strain) (setting [2]) and 7.80 with HSV-2 virus (MS strain) (read-out: EC50-HSV2-FBS).
Turning to `C[C@@H]1c2cc(F)c(S(N)(=O)=O)cc2N(C(=O)[C@@H]2Cc3ccc(-c4ccccn4)cc3C2)[C@@H]1C` [Example 48, (2R,3R)-5-fluoro-2,3-dimethyl-1-((R)-5-(pyridin-2-yl)-2,3-dihydro-1H-indene-2-carbonyl)indoline-6-sulfonamide], the half-maximal cytotoxic concentration (CC50) at 5 days in data set [1] was ≥ 10000 nM. Further, the values for the pEC50 in the data set with HSV-2 virus (MS strain) (setting [2]) and in the data set on HSV-2 virus (MS strain) (read-out: EC50-HSV2-FBS) were 6.98 and 7.80, respectively.
In the same order, the values of `C[C@@H]1Cc2cc(F)c(S(N)(=O)=O)cc2N1C(=O)[C@@H]1Cc2ccc(-c3cc(F)ccc3Cl)cc2C1` [Example 50, (R)-1-((R)-5-(2-chloro-5-fluorophenyl)-2,3-dihydro-1H-indene-2-carbonyl)-5-fluoro-2-methylindoline-6-sulfonamide] are ≥ 10000 nM, 6.67 and 7.21.
In the same order, the values of `C[S@](=N)(=O)c1cc2c(cc1F)CCN2C(=O)[C@@H]1Cc2ccc(-c3cc(F)ccc3F)cc2C1` [Example 53] are ≥ 10000 nM, 6.38 and 7.32.
For `C[C@@H]1Cc2ccc(S(N)(=O)=O)cc2N1C(=O)C1Cc2cc(-c3ccccn3)ccc2O1` (stereo partly shown) [Example 57], in that order: ≥ 10000 nM, 6.42 and 7.46.
Take `C[C@@H]1Cc2cc(F)c(S(N)(=O)=O)cc2N1C(=O)[C@@H]1Cc2ccc(-c3cc(F)cc(F)c3F)cc2C1` [Example 62, (R)-5-fluoro-2-methyl-1-((R)-5-(2,3,5-trifluorophenyl)-2,3-dihydro-1H-indene-2-carbonyl)indoline-6-sulfonamide]: the CC50 at 5 days in data set [1] is ≥ 10000 nM. Besides, the pEC50 in the data set with HSV-2 virus (MS strain) (setting [2]) was 6.50; in the data set on HSV-2 virus (MS strain) (read-out: EC50-HSV2-FBS) it was 7.23.
In the same order, the values of `Cc1cc2c(cc1S(N)(=O)=O)N(C(=O)[C@@H]1Cc3ccc(-c4ccccn4)cc3C1)[C@H](C)C2` [Example 63, (R)-2,5-dimethyl-1-((R)-5-(pyridin-2-yl)-2,3-dihydro-1H-indene-2-carbonyl)indoline-6-sulfonamide] are ≥ 10000 nM, 6.04 and 7.60.
In the case of `NS(=O)(=O)c1ccc2c(c1)N(C(=O)[C@@H]1Cc3ccc(-c4ccccn4)cc3C1)CC21CC1` [Example 64, (R)-1′-(5-(pyridin-2-yl)-2,3-dihydro-1H-indene-2-carbonyl)spiro[cyclopropane-1,3′-indoline]-6′-sulfonamide], the CC50 at 5 days in data set [1] is ≥ 10000 nM. Also, the pEC50 with HSV-2 virus (MS strain) (setting [2]) is ≤ 5.00; in the data set on HSV-2 virus (MS strain) (read-out: EC50-HSV2-FBS), 6.94.
`CC[C@@H]1Cc2ccc(S(N)(=O)=O)cc2N1C(=O)[C@@H]1Cc2ccc(-c3ccccn3)cc2C1` [Example 68, (R)-2-ethyl-1-((R)-5-(pyridin-2-yl)-2,3-dihydro-1H-indene-2-carbonyl)indoline-6-sulfonamide]: in data set [1], the CC50 at 5 days was ≥ 10000 nM. Also, the pEC50 is 6.63 in the data set with HSV-2 virus (MS strain) (setting [2]) and 7.51 in the data set on HSV-2 virus (MS strain) (read-out: EC50-HSV2-FBS).
In the same order, the values of `NS(=O)(=O)c1ccc2c(c1)N(C(=O)C1Cc3ccc(-n4cccn4)cc3C1)CC2` (stereo not shown) [Example 78, 1-(5-(1H-pyrazol-1-yl)-2,3-dihydro-1H-indene-2-carbonyl)indoline-6-sulfonamide] are ≥ 50000 nM, 4.68 and 7.19.
With `NS(=O)(=O)c1ccc2c(c1)N(C(=O)[C@@H]1Cc3ccc(-c4cccc(F)n4)cc3C1)CC2` [Example 85, (R)-1-(5-(6-fluoropyridin-2-yl)-2,3-dihydro-1H-indene-2-carbonyl)indoline-6-sulfonamide], the CC50 at 5 days in data set [1] was 330 nM. In addition, the pEC50 with HSV-2 virus (MS strain) (setting [2]) was 5.12; in the data set on HSV-2 virus (MS strain) (read-out: EC50-HSV2-FBS) it was 8.05.
Take `NS(=O)(=O)c1ccc2c(c1)N(C(=O)[C@H]1Cc3ccc(-c4cnccn4)cc3C1)CC2` [Example 86, (S)-1-(5-(pyrazin-2-yl)-2,3-dihydro-1H-indene-2-carbonyl)indoline-6-sulfonamide]: the 50% cytotoxic concentration (CC50) at 5 days in data set [1] is 28500 nM. Also, the negative logarithm of the EC50 (pEC50) in the data set on HSV-2 virus (MS strain) (read-out: EC50-HSV2-FBS) was 6.34.
In the same order, the values of `NS(=O)(=O)c1ccc2c(c1)N(C(=O)[C@H]1Cc3ccc(-c4ncccc4F)cc3C1)CC2` [Example 88, (S)-1-(5-(3-fluoropyridin-2-yl)-2,3-dihydro-1H-indene-2-carbonyl)indoline-6-sulfonamide] are 1800 nM and 6.27.
On to `Cc1cccc(-c2ccc3c(c2)C[C@H](C(=O)N2CCc4ccc(S(N)(=O)=O)cc42)C3)n1` [Example 90, (R)-1-(5-(6-methylpyridin-2-yl)-2,3-dihydro-1H-indene-2-carbonyl)indoline-6-sulfonamide], for which the CC50 at 5 days in data set [1] was 36900 nM. Moreover, the pEC50 in the data set on HSV-2 virus (MS strain) (setting [2]) is 4.84; in the data set with HSV-2 virus (MS strain) (read-out: EC50-HSV2-FBS), 7.64.
Take `NS(=O)(=O)c1ccc2c(c1)N(C(=O)[C@@H]1Cc3ccc(-n4cccn4)cc3C1)CC2` [Example 91, (R)-1-(5-(1H-pyrazol-1-yl)-2,3-dihydro-1H-indene-2-carbonyl)indoline-6-sulfonamide]: the CC50 at 5 days in data set [1] is ≥ 50000 nM. The negative-log EC50 (pEC50) is 4.94 in the data set on HSV-2 virus (MS strain) (setting [2]) and 7.40 in the data set on HSV-2 virus (MS strain) (read-out: EC50-HSV2-FBS).
With `CC1c2ccc(-c3ccccn3)cc2CC1C(=O)N1CCc2cc(F)c(S(N)(=O)=O)cc21` (stereo not shown) [Example 96, 5-fluoro-1-(1-methyl-5-(pyridin-2-yl)-2,3-dihydro-1H-indene-2-carbonyl) indoline-6-sulfonamide], the CC50 at 5 days in data set [1] was 12900 nM. Moreover, the pEC50 in the data set on HSV-2 virus (MS strain) (setting [2]) is 7.07; with HSV-2 virus (MS strain) (read-out: EC50-HSV2-FBS), 7.62.
For `Cc1cccc(-c2ccc3c(c2)CC(C(=O)N2CCc4cc(F)c(S(N)(=O)=O)cc42)C3C)n1` (stereo not shown) [Example 99, 5-fluoro-1-(1-methyl-5-(6-methylpyridin-2-yl)-2,3-dihydro-1H-indene-2-carbonyl) indoline-6-sulfonamide], in that order: ≥ 10000 nM, 6.40 and 7.20.
In the same order, the values of `CC1c2ccc(-n3cccn3)cc2CC1C(=O)N1CCc2cc(F)c(S(N)(=O)=O)cc21` (stereo not shown) [Example 100] are 5430 nM, 6.97 and 7.47.
On to `C[C@H]1CN(C(=O)[C@H]2Cc3cc(-c4ccccn4)ccc3[C@@H]2C)c2cc(S(N)(=O)=O)c(F)cc21` [Example 104, (R)-5-fluoro-3-methyl-1-((1R,2S)-1-methyl-5-(pyridin-2-yl)-2,3-dihydro-1H-indene-2-carbonyl)indoline-6-sulfonamide], for which the CC50 at 5 days in data set [1] is ≥ 10000 nM. Besides, the pEC50 with HSV-2 virus (MS strain) (setting [2]) was 7.19; in the data set with HSV-2 virus (MS strain) (read-out: EC50-HSV2-FBS), 7.70.
Consider `CC[C@@H]1Cc2cc(F)c(S(N)(=O)=O)cc2N1C(=O)[C@@H]1Cc2ccc(-c3ccccn3)cc2C1` [Example 113], for which the CC50 at 5 days in data set [1] is ≥ 10000 nM. Besides, the pEC50 with HSV-2 virus (MS strain) (setting [2]) was 6.77; with HSV-2 virus (MS strain) (read-out: EC50-HSV2-FBS), 7.72.
Regarding `C[C@@H]1Cc2ccc(S(N)(=O)=O)cc2N1C(=O)[C@H]1Cc2cc(-c3cc(F)ccc3F)ccc2O1` [Example 123, (R)-1-((R)-5-(2,5-difluorophenyl)-2,3-dihydrobenzofuran-2-carbonyl)-2-methylindoline-6-sulfonamide], the CC50 at 5 days in data set [1] is ≥ 10000 nM. The pEC50 was 6.54 in the data set with HSV-2 virus (MS strain) (setting [2]) and 7.34 with HSV-2 virus (MS strain) (read-out: EC50-HSV2-FBS).
